Patent US12655116B2, “Substituted isophthalic acid diamides” (Bayer Aktiengesellschaft, priority 2020, dated 2026)

Assays:
ALOMY = assay: Pre-emergence herbicidal action against ALOMY; type: in vivo, Alopecurus myosuroides; conditions: Alopecurus myosuroides, 504 h; 80 g/ha, pre-emergence, scored visually after 3 weeks vs untreated controls (100% = plants have died, 0% = like control plants)
In short: (§1)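 Herbicidal effect was assessed 3 weeks after treatment by visual comparison with untreated controls, 100% denoting dead plants. Aqueous WP or EC preparations had been applied at 600 to 800 l/ha with 0.2% wetting agent to the soil covering freshly sown seeds.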

VERPE [1] = assay: Pre-emergence herbicidal action against VERPE; type: in vivo, Veronica persica; conditions: Veronica persica, 504 h, dosage 80 g/ha
In short: as §1

VERPE [2] = assay: Post-emergence herbicidal action against VERPE; type: in vivo, Veronica persica; conditions: Veronica persica, 504 h
In short: (§2)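 Post-emergence greenhouse test; one-leaf stage, 2–3 wk post-sowing, sandy loam. Foliar spray of WP/EC in water, 600–800 l/ha, +0.2% wetting agent. Visual % action at ~3 wk vs untreated (100% = plants dead).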

VIOTR [3] = assay: Post-emergence herbicidal action against VIOTR; type: in vivo, Viola tricolor; conditions: Viola tricolor, 504 h
In short: as §2

VIOTR [4] = assay: Pre-emergence herbicidal action against VIOTR; type: in vivo, Viola tricolor; conditions: Viola tricolor, 504 h; for pest or weed control at 20 g/ha: dosage 20 g/ha; for pest or weed control at 80 g/ha: dosage 80 g/ha
In short: as §1

ABUTH [5] = assay: Pre-emergence herbicidal action against ABUTH; type: in vivo, Abutilon theophrasti; conditions: Abutilon theophrasti, 504 h; for pest or weed control at 80 g/ha: scored visually after 3 weeks vs untreated controls (100% = plants have died, 0% = like control plants); for pest or weed control at 20 g/ha: dosage 20 g/ha, scored visually after 3 weeks vs untreated controls, 100% = plants have died, 0% = like control plants, read-out: Pre-emergence action against ABUTH (herbicidal activity in percent)
In short: as §1

ECHCG [6] = assay: Post-emergence herbicidal action against ECHCG; type: in vivo, Echinochloa crus-galli; conditions: Echinochloa crus-galli, 504 h; for pest or weed control at 5 g/ha: dosage 5 g/ha; for pest or weed control at 20 g/ha: dosage 20 g/ha
In short: as §2

ABUTH [7] = assay: Post-emergence herbicidal action against ABUTH; type: in vivo, Abutilon theophrasti; conditions: Abutilon theophrasti, 504 h, visual assessment about 3 weeks after treatment vs untreated controls; for pest or weed control at 5 g/ha: dosage 5 g/ha; for pest or weed control at 20 g/ha: dosage 20 g/ha
In short: as §2

SETVI [8] = assay: Pre-emergence herbicidal action against SETVI; type: in vivo, Setaria viridis; conditions: Setaria viridis, 504 h; for pest or weed control at 80 g/ha: dosage 80 g/ha
In short: as §1

ECHCG [9] = assay: Pre-emergence herbicidal action against ECHCG; type: in vivo, Echinochloa crus-galli; conditions: Echinochloa crus-galli, 504 h
In short: as §1

SETVI [10] = assay: Post-emergence herbicidal action against SETVI; type: in vivo, Setaria viridis; conditions: Setaria viridis, 504 h; for pest or weed control at 20 g/ha: dosage 20 g/ha
In short: as §2

AMARE [11] = assay: Post-emergence herbicidal action against AMARE; type: in vivo, Amaranthus retroflexus; conditions: Amaranthus retroflexus, 504 h, 20 g/ha, visual assessment about 3 weeks after treatment, 100% = plants have died, 0% = like control plants
In short: as §2

MATIN [12] = assay: Post-emergence herbicidal action against MATIN; type: in vivo, Matricaria inodora; conditions: Tripleurospermum inodorum, 504 h; for pest or weed control at 5 g/ha: dosage 5 g/ha; for pest or weed control at 20 g/ha: dosage 20 g/ha
In short: as §2

POLCO = assay: Pre-emergence herbicidal action against POLCO; type: in vivo, Polygonum convolvulus; conditions: Fallopia convolvulus, 504 h; for pest or weed control at 20 g/ha: dosage 20 g/ha; for pest or weed control at 80 g/ha: dosage 80 g/ha
In short: as §1

PHBPU [13] = assay: Pre-emergence herbicidal action against PHBPU; type: in vivo, Pharbitis purpurea; conditions: Ipomoea purpurea, 504 h, dosage 80 g/ha
In short: as §1

DIGSA [14] = assay: Pre-emergence herbicidal action against DIGSA; type: in vivo, Digitaria sanguinalis; conditions: Digitaria sanguinalis, 504 h; for pest or weed control at 20 g/ha: dosage 20 g/ha; for pest or weed control at 80 g/ha: dosage 80 g/ha
In short: as §1

MATIN [15] = assay: Pre-emergence herbicidal action against MATIN; type: in vivo, Matricaria inodora; conditions: Tripleurospermum inodorum, 504 h; for pest or weed control at 20 g/ha: dosage 20 g/ha; for pest or weed control at 80 g/ha: dosage 80 g/ha
In short: as §1

DIGSA [16] = assay: Post-emergence herbicidal action against DIGSA; type: in vivo, Digitaria sanguinalis; conditions: Digitaria sanguinalis, 504 h
In short: as §2

AMARE [17] = assay: Pre-emergence herbicidal action against AMARE; type: in vivo, Amaranthus retroflexus; conditions: Amaranthus retroflexus, 504 h, scored visually after 3 weeks vs untreated controls, 100% = plants have died, 0% = like control plants
In short: as §1

PHBPU [18] = assay: Post-emergence herbicidal action against PHBPU; type: in vivo, Pharbitis purpurea; conditions: Ipomoea purpurea, 504 h; for pest or weed control at 20 g/ha: dosage 20 g/ha
In short: as §2

AVEFA = assay: Pre-emergence herbicidal action against AVEFA; type: in vivo, Avena fatua; conditions: Avena fatua, 504 h; 80 g/ha, pre-emergence
In short: as §1

| SMILES | pest or weed control at 80 g/ha (ALOMY) [%] | pest or weed control at 80 g/ha (VERPE [1]) [%] | pest or weed control at 5 g/ha (VERPE [2]) [%] | pest or weed control at 20 g/ha (VERPE [2]) [%] | pest or weed control at 5 g/ha (VIOTR [3]) [%] | pest or weed control at 20 g/ha (VIOTR [3]) [%] | pest or weed control at 20 g/ha (VIOTR [4]) [%] | pest or weed control at 80 g/ha (VIOTR [4]) [%] | pest or weed control at 80 g/ha (ABUTH [5]) [%] | pest or weed control at 20 g/ha (ABUTH [5]) [%] | pest or weed control at 5 g/ha (ECHCG [6]) [%] | pest or weed control at 20 g/ha (ECHCG [6]) [%] | pest or weed control at 5 g/ha (ABUTH [7]) [%] | pest or weed control at 20 g/ha (ABUTH [7]) [%] | pest or weed control at 80 g/ha (SETVI [8]) [%] | pest or weed control at 80 g/ha (ECHCG [9]) [%] | pest or weed control at 20 g/ha (SETVI [10]) [%] | pest or weed control at 20 g/ha (AMARE [11]) [%] | pest or weed control at 5 g/ha (MATIN [12]) [%] | pest or weed control at 20 g/ha (MATIN [12]) [%] | further results |
| --- | --- | --- | --- | --- | --- | --- | --- | --- | --- | --- | --- | --- | --- | --- | --- | --- | --- | --- | --- | --- | --- |
| CCNC(=O)c1c(C(F)F)ccc(C(=O)Nc2nnnn2C)c1CC [Example 1-278] | 90 | 100 | 80 | 90 | 90 | 90 | 100 | 100 | 100 | 90 | 90 | 90 | 80 | 90 | 100 | 100 | 90 | 90 | 80 | 90 | pest or weed control at 20 g/ha (ECHCG [9]; 20 g/ha): 90%; pest or weed control at 20 g/ha (POLCO): 90%; pest or weed control at 80 g/ha (POLCO): 100%; pest or weed control at 80 g/ha (PHBPU [13]): 90%; pest or weed control at 20 g/ha (DIGSA [14]): 100%; pest or weed control at 80 g/ha (DIGSA [14]): 100%; pest or weed control at 20 g/ha (MATIN [15]): 100%; pest or weed control at 80 g/ha (MATIN [15]): 100%; pest or weed control at 5 g/ha (DIGSA [16]): 90%; pest or weed control at 20 g/ha (DIGSA [16]): 90%; pest or weed control at 20 g/ha (AMARE [17]): 100%; pest or weed control at 80 g/ha (AMARE [17]): 100%; pest or weed control at 20 g/ha (PHBPU [18]): 90%; pest or weed control at 80 g/ha (AVEFA): 90% |
| CCc1c(C(=O)Nc2nnnn2C)ccc(C(F)F)c1C(=O)NC1CC1 [Example 1-279] | 80 | 90 | 80 | 100 | 90 | 90 | 100 | 100 | 100 | 100 | 80 | 90 | 80 | 90 | 100 | 100 | 90 | 100 | 90 | 90 | pest or weed control at 20 g/ha (SETVI [8]; dosage 20 g/ha): 80%; pest or weed control at 5 g/ha (SETVI [10]; dosage 5 g/ha): 90%; pest or weed control at 20 g/ha (POLCO): 80%; pest or weed control at 80 g/ha (POLCO): 90%; pest or weed control at 80 g/ha (PHBPU [13]): 90%; pest or weed control at 20 g/ha (DIGSA [14]): 100%; pest or weed control at 80 g/ha (DIGSA [14]): 100%; pest or weed control at 20 g/ha (MATIN [15]): 100%; pest or weed control at 80 g/ha (MATIN [15]): 100%; pest or weed control at 5 g/ha (DIGSA [16]): 90%; pest or weed control at 20 g/ha (DIGSA [16]): 90%; pest or weed control at 20 g/ha (AMARE [17]): 100%; pest or weed control at 80 g/ha (AMARE [17]): 100%; pest or weed control at 5 g/ha (PHBPU [18]; dosage 5 g/ha): 90%; pest or weed control at 20 g/ha (PHBPU [18]): 90%; pest or weed control at 80 g/ha (AVEFA): 90% |
